Experimental data published in patent US20180028690A1, “INDOCYANINE GREEN FORMULATIONS AND METHODS FOR IMAGING OF THE URINARY PATHWAYS” (Yissum Reseach Development Company of the Herbrew …, priority 2015, published 2018).
“And” between values parts separate entries of the source, which are not always exact repeats. Identical values can stand only once.

Experiments:
[1] = Whole body NIR imaging (IVIS Kinetic) after intravenous injection; format: in vivo, Female FVB mice
Protocol: Mice were shaved under isoflurane (1-2%, v/v) anesthesia and underwent baseline scans using an IVIS Kinetic® in vivo imaging system (Caliper Life Sciences, Hopkinton, Mass., USA). Two hundred μl of 8 mg/kg Phospholipon® 50 ICG liposomes or the free compound in 2 mM sucrose buffer (phosphate buffer pH 7, with 9.3% w/w sucrose) were injected into the tail vein and the mice were repetitively scanned over a time period of up to 120 min.
Analysis of in vivo ICG pharmacokinetics (PK), including region of interest (ROI) placement (Living Image; PerkinElmer, Waltham, Mass., USA; (Schneider et al., 2012)) and calculation of the area under the concentration-time curve (AUC) from the time of injection to the time of the last measurement (Phoenix WinNonlin; Certara; St. Louis, Mo., USA), was conducted as previously described (Portnoy et al., 2012). Partial areas were calculated for the AUC between the time of ICG injection (0 min) and 60 or 120 min after injection (AUC0-60 min and AUC0-120 mm, respectively). Data are presented as means±SD. The non-parametric Mann-Whitney or Kruskal-Wallis tests, as appropriate, were used to determine the statistical significance of difference (p<0.05) between experimental groups (InStat; GraphPad, La Jolla, Calif., USA).

[2] = Imaging of surgically exposed kidneys and ureters after midline laparotomy; format: in vivo, Female FVB mice; settings: P<0.01
Protocol: An additional cohort of animals was used for further studies of the accumulation of liposomal ICG in the urinary system. Liposomal or free ICG was injected into the tail vein, and 3 min later, mice were treated with high dose pentobarbital administered intraperitoneally. Overall time of active circulation after the ICG injection was about 10 min. Thereafter, mice were subjected to midline laparotomy with full exposure of the retroperitoneum. The ureters were identified in their origin from the kidneys, and distally clipped or loosely tied for identification. The mice were also hysterectomyzed to ease the urinary bladder identification. Subsequently, the animals were scanned by the Typhoon FLA 9500 biomolecular imager. Each experiment was repeated at least three times.

[3] = Fluorescence spectra and relative quantum yield of ICG-adsorbed liposomes vs ICG in aqueous solution; format: physicochemical
Protocol: The fluorescence spectra of the ICG-adsorbed liposomes prepared were evaluated in comparison to those of ICG in aqueous solution.
The relative quantum yield was calculated according to the following equation (Fery-Forgues and Lavabre, 1999):
where φ is the quantum yield, F is the area under the emission peak (expressed in number of photons), A is absorbance at the excitation wavelength, and n is the refractive index of the solvents. The subscript x denotes the respective values of the sample (liposome-ICG), and s denotes standard (free ICG in buffer).

[4] = Stability of ICG absorption at light and at dark over time; format: physicochemical; settings: aqueous solution or adsorbed to liposomes
Protocol: The red shift is accompanied with quenching of fluorescence, i.e., the larger the red shift the lower the fluorescence intensity. Because the fluorescence intensity of ICG-liposomes was greater than that of unbound ICG molecules (aqueous solution), the quantum yield ratio between the two states in which ICG is present was determined, for a concentration of 1.28×10^−3 mM. ICG is poorly stable in aqueous solutions due to degradation, and therefore, in order to evaluate the stability of the ICG-adsorbed liposomes, the absorption of this fluorescent probe, when dissolved in an aqueous solution or adsorbed to the liposomes, was measured at light and at dark over time.

[5] = Ureter imaging with ICG-HPβCD inclusion complex vs free ICG (Typhoon imager); format: in vivo, female FVB mice; settings: 8 mg/kg ICG, 10 min post injection
Protocol: 60 mg of ICG (Acros) was solubilized in 12.5 ml of DDW. 2 ml of ICG solution were added to 10 ml of phosphate buffer (pH 7, 2 mM, and sucrose 9.3% w/w). 18.5 mg of HPβCD (Acros) were added to ICG buffered solution and mixed for 10 h at 4° C. […] Mice were sacrificed 10 min post injection and imaged by Typhoon imager (General Electric).

[6] = literature (Bax 1980; Cherrick 1960); cited from earlier work

urinary bladder/feet AUC0-60 min ratio of emission intensity ([1]; 8 mg/kg ICG i.v., feet-normalized AUC, 0-60 min): 2.3±0.5
urinary bladder/feet AUC0-120 min ratio of emission intensity ([1]; 8 mg/kg ICG i.v., feet-normalized AUC, 0-120 min): 2.3±0.4
emission intensity AUC of the urinary bladder relative to that of the feet ([1]; control mice, 8 mg/kg i.v.): 2.3 fold
ICG emission peak in water, shift ([3]; concentrations above 6.4×10^−3 mM): up to 814 nm
ICG emission peak in water ([3]; concentrations less than 6.4×10^−3 mM): 805 nm
renal excretion [5]: negligibly excreted in the urine
SMILES: CC1(C)C(/C=C/C=C/C=C/C=C2\N(CCCCS(=O)(=O)O)c3ccc4ccccc4c3C2(C)C)=[N+](CCCCS(=O)(=O)[O-])c2ccc3ccccc3c21 [free ICG, indocyanine green]
ureteral emission normalized to renal emission (ureters/kidneys ratio) [2]: 0.56±0.10 and 0.5
absorption over time at light and at dark (stability) [4]: decreases over time both in light and in dark
labelling of ureters [5]: did not
half life in plasma [6]: in the minutes range
renal elimination after systemic administration [6]: negligible
